{"source": "paper PMC11879140", "about": "“Engineering of Phycourobilin Synthase: PubS to a Two-Electron Reductase” (Plant and Cell Physiology, 2024)", "test_in_all_cases": "absorption spectrum of BV complex; anaerobic bilin reductase assay with HPLC", "format_in_all_cases": "biochemical", "settings_in_all_cases": "ferredoxin (Synechococcus sp. PCC 7002), FNR, NADPH 100 uM; 10 uM BV, 10 uM PubS; pH 8.5, 30 °C", "key": {"[1]": {"molecular_target": "T1, ΔΝ_PpPubS (PpPubS, PubS) (Physcomitrium patens, UniProt I3TC50, F238A/N310R)", "T1 construct": "residues 1-55 (N-terminal disordered region) deleted; N-terminal His-tag, pET28a, synthetic codon-optimised gene, E. coli C41", "T1 sequence (I3TC50 entry or part of it F238A/N310R)": "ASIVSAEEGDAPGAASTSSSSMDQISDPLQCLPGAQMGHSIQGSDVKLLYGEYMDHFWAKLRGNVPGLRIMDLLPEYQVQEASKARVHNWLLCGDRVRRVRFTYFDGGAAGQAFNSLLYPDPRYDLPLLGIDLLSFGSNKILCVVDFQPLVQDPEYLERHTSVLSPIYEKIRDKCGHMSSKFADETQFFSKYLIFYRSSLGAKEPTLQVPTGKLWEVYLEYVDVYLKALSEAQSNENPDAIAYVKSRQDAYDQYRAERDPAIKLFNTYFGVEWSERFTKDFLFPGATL"}, "[2]": {"molecular_target": "T2, ΔΝ_PpPubS (PpPubS, PubS) (Physcomitrium patens, UniProt I3TC50, N310R)", "T2 construct": "residues 1-55 (N-terminal disordered region) deleted; N-terminal His-tag, pET28a, synthetic codon-optimised gene, E. coli C41", "T2 sequence (I3TC50 entry or part of it N310R)": "as the sequence (I3TC50 entry or part of it F238A/N310R) above, with A183F counted along it"}, "[3]": {"molecular_target": "T3, ΔΝ_PpPubS (PpPubS, PubS) (Physcomitrium patens, UniProt I3TC50, E240A/N310R)", "T3 construct": "residues 1-55 (N-terminal disordered region) deleted; N-terminal His-tag, pET28a, synthetic codon-optimised gene, E. coli C41", "T3 sequence (I3TC50 entry or part of it E240A/N310R)": "as the sequence (I3TC50 entry or part of it F238A/N310R) above, with A183F, E185A counted along it"}}, "data": [{"compound": "C=CC1=C(C)C(=Cc2[nH]c(C=C3N=C(C=C4NC(=O)C(C)=C4C=C)C(C)=C3CCC(=O)O)c(CCC(=O)O)c2C)NC1=O", "note": "[biliverdin IXα]", "values": [{"measurement": "absorption spectrum of BV complex; anaerobic bilin reductase assay with HPLC", "setting": "[1]", "value": "Spectroscopic observations of these variants showed a decrease in BV after the addition of NADPH"}, {"measurement": "absorption spectrum of BV complex; anaerobic bilin reductase assay with HPLC", "setting": "[2]", "value": "PpPubS_N310R exhibited a decrease in BV absorbance similar to the wild-type molecule"}, {"measurement": "absorption spectrum of BV complex; anaerobic bilin reductase assay with HPLC", "setting": "[3]", "value": "Spectroscopic observations of these variants showed a decrease in BV after the addition of NADPH"}]}]}
